Test results as given in article PMC11671793, “Design, Synthesis, and Evaluation of Novel (−)‐cis‐N‐Normetazocine Derivatives: In Vitro and Molecular Modeling Insights” (Chemical Biology & Drug Design, 2024).
Where two headings read alike, the source gives them in different places.

Experiments:
[1] = target: T1, KOR (kappa opioid receptor) (Cavia porcellus, UniProt P41144); conditions: cited from earlier work
T1 construct: from tissue; host or cells: guinea pig brain membranes

MOR (mu opioid receptor) [2] = target: T2, MOR (mu opioid receptor) (Rattus norvegicus, UniProt P33535); conditions: cited from earlier work
T2 construct: from tissue; host or cells: rat brain membranes
T2 sequence (P33535 whole entry): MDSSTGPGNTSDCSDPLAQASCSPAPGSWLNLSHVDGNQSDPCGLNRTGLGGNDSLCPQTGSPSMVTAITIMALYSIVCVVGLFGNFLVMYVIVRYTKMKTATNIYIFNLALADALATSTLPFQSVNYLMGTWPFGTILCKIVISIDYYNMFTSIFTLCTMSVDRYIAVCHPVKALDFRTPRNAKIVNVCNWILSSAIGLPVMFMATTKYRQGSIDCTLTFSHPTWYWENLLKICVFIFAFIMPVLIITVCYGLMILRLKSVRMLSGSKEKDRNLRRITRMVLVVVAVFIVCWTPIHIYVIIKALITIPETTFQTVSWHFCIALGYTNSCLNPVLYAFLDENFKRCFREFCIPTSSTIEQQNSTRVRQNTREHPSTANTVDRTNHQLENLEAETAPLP

[3] = target: T3, DOR (delta opioid receptor) (Rattus norvegicus, UniProt P33533); conditions: cited from earlier work
T3 sequence (P33533 whole entry): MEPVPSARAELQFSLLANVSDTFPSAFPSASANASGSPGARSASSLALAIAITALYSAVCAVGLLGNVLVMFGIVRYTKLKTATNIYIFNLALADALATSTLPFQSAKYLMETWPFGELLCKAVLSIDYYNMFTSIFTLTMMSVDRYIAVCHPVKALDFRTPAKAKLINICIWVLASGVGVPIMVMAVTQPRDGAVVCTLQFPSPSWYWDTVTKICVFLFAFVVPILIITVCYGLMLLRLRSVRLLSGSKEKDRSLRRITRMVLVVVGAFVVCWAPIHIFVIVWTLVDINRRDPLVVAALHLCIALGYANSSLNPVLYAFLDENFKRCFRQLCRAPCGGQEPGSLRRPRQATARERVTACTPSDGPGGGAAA

MOR (mu opioid receptor) [4] = target: T2, MOR (mu opioid receptor); assay: MOR radioligand binding assay with [3H]-DAMGO; conditions: for K i DOR/K i MOR / K i KOR/K i MOR: selectivity ratio
[5] = target: T3, DOR (delta opioid receptor); assay: DOR radioligand binding assay with [3H]-Delthorphin
[6] = target: T1, KOR (kappa opioid receptor); assay: KOR radioligand binding assay with [3H]-U69,593; parameters: species or system guinea pig
KOR = target: KOR; parameters: method as in Pasquinucci et al. [2010]; conditions: Figure 1; ref Pasquinucci et al. [2010]; cited from earlier work
DOR = target: DOR; parameters: method as in Pasquinucci et al. [2010]; conditions: Figure 1; ref Pasquinucci et al. [2010]; cited from earlier work
MOR = target: MOR; parameters: method as in Pasquinucci et al. [2010]; conditions: Figure 1; ref Pasquinucci et al. [2010]; cited from earlier work
[7] = read-out: KOR Expected K i, experimental Ki as repeated in Table 2, previously synthesized compounds, ref Pasquinucci et al. ([2017]), Costanzo et al. ([2023])
[8] = read-out: MOR Expected K i, experimental Ki as repeated in Table 2, previously synthesized compounds, ref Pasquinucci et al. ([2017]), Costanzo et al. ([2023])
[9] = read-out: DOR Expected K i, experimental Ki as repeated in Table 2, previously synthesized compounds, ref Pasquinucci et al. ([2017]), Costanzo et al. ([2023])
[10] = K i (nM) ± SD KOR, [3H]-U69,593, mean ± SD of at least two experiments in duplicate
[11] = KOR Expected K i (nM), experimental Ki as repeated in Table 2

T1 sequence (P41144 whole entry): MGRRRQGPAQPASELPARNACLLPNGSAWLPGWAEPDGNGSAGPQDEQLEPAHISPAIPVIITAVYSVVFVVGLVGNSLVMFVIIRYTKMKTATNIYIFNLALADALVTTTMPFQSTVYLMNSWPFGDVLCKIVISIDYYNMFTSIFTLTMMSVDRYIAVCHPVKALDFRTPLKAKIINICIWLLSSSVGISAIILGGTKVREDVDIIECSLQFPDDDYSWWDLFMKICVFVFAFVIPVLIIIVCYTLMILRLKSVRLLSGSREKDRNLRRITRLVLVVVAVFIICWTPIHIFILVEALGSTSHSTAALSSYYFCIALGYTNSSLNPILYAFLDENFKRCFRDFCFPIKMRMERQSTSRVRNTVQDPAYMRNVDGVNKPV

What does the source list for CCOC(=O)C(CCN1CCC2(C)c3cc(O)ccc3CC1C2C)c1ccccc1 (stereo not drawn) [Compound 1]?
Ki ([1]; experimental Ki as repeated in Table 2, previously synthesized compounds, ref Pasquinucci et al. ([2017]), Costanzo et al. ([2023]), read-out: KOR Expected K i): 130 ± 15 nM; Ki ([1]; footnote b, ref Pasquinucci et al. ([2017]), read-out: K i (nM) ± SD KOR): 130 ± 15 nM; Ki (MOR (mu opioid receptor) [2]; experimental Ki as repeated in Table 2, previously synthesized compounds, ref Pasquinucci et al. ([2017]), Costanzo et al. ([2023]), read-out: MOR Expected K i): 10.8 ± 2 nM; Ki (MOR (mu opioid receptor) [2]; footnote b, ref Pasquinucci et al. ([2017]), read-out: K i (nM) ± SD MOR): 10.8 ± 2 nM; Ki ([3]; experimental Ki as repeated in Table 2, previously synthesized compounds, ref Pasquinucci et al. ([2017]), Costanzo et al. ([2023]), read-out: DOR Expected K i): 440 ± 22 nM; Ki ([3]; footnote b, ref Pasquinucci et al. ([2017]), read-out: K i (nM) ± SD DOR): 440 ± 22 nM; K i DOR/K i MOR (MOR (mu opioid receptor) [4]): 40.70; K i KOR/K i MOR (MOR (mu opioid receptor) [4]): 12.00

With CC1C2Cc3ccc(O)cc3C1(C)CCN2CCC(C(=O)O)c1ccccc1 (stereo not drawn) [Compound 2] as the molecule, how does the Ki ([1]; read-out: K i (nM) ± SD KOR, footnote b, ref Pasquinucci et al. ([2017])) read?
Its Ki is 3220 ± 60 nM.

And the Ki [1, 7]?
Its Ki is 3220 ± 60 nM.

What about the Ki (MOR (mu opioid receptor) [2]; read-out: K i (nM) ± SD MOR, footnote b, ref Pasquinucci et al. ([2017])) of the same molecule?
Its Ki is 11.8 ± 2 nM.

And the Ki (MOR (mu opioid receptor) [2]; [8])?
The Ki was 11.8 ± 2 nM.

What about the Ki [3, 9] of the same molecule?
The Ki was 275 ± 11 nM.

What about the Ki ([3]; read-out: K i (nM) ± SD DOR, footnote b, ref Pasquinucci et al. ([2017])) of the same molecule?
Its Ki is 275 ± 11 nM.

What about the “K i DOR/K i MOR” value (MOR (mu opioid receptor) [4]) of the same molecule?
The value was 23.30.

Which Ki [5] does the source give for COC(=O)CCN1CC[C@@]2(C)c3cc(O)ccc3C[C@@H]1[C@@H]2C [Compound 3, Methyl 3‐[(2R,6R,11R)‐8‐hydroxy‐6,11‐dimethyl‐1,4,5, 6‐tetrahydro‐2,6‐methanobenzo[d]azocin‐3(2H]‐yl)propanoate] here?
Its Ki is 513 ± 30 nM.

And the Ki [6, 10]?
Its Ki is 60.7 ± 8 nM.

What about the Ki [6, 11] of the same molecule?
The Ki was 60.7 ± 0.7 nM.

What about the Ki (MOR (mu opioid receptor) [4]) of the same molecule?
The Ki was 19 ± 3 nM.

And the “K i DOR/K i MOR” value (MOR (mu opioid receptor) [4])?
Its value is 26.98.

What about the “K i KOR/K i MOR” value (MOR (mu opioid receptor) [4]) of the same molecule?
The value was 3.19.

With COC(=O)CCCN1CC[C@@]2(C)c3cc(O)ccc3C[C@@H]1[C@@H]2C [Compound 4, Methyl 4‐((2R,6R,11R)‐8‐hydroxy‐6,11‐dimethyl‐1,4,5,6‐tetrahydro‐2,6‐ methanobenzo[d]azocin‐3(2H)‐yl)butanoate] as the molecule, how does the Ki [5] read?
The Ki was 218 ± 20 nM.

What about the Ki [6, 10] of the same molecule?
Its Ki is 70.5 nM.

And the Ki [6, 11]?
Its Ki is 70.5 ± 0.76 nM.

What about the Ki (MOR (mu opioid receptor) [4]) of the same molecule?
The Ki was 67.8 ± 7 nM.

And the “K i DOR/K i MOR” value (MOR (mu opioid receptor) [4])?
Its value is 3.21.

And the “K i KOR/K i MOR” value (MOR (mu opioid receptor) [4])?
The value was 1.04.

With C[C@H]1[C@H]2Cc3ccc(O)cc3[C@]1(C)CCN2CCC(=O)O [Compound 5, 3‐((2R,6R,11R)‐8‐Hydroxy‐6,11‐dimethyl‐1,4,5,6‐tetrahydro‐2,6‐methanobenzo[d]azocin‐3(2H)‐yl)propanoic acid] as the molecule, how does the Ki [5] read?
Its Ki is 1100 ± 54 nM.

What about the Ki [6, 10] of the same molecule?
Its Ki is over 5000 nM.

What about the Ki (MOR (mu opioid receptor) [4]) of the same molecule?
The Ki was 383 ± 21 nM.

What about the “K i DOR/K i MOR” value (MOR (mu opioid receptor) [4]) of the same molecule?
Its value is 2.88.

Which results are given for C[C@H]1[C@H]2Cc3ccc(O)cc3[C@]1(C)CCN2CCCC(=O)O [Compound 6, 4‐((2R,6R,11R)‐8‐Hydroxy‐6,11‐dimethyl‐1,4,5,6‐tetrahydro‐2,6‐methanobenzo[d]azocin‐3(2H)‐yl)butanoic acid]?
Ki [5]: 1200 ± 64 nM; Ki [6, 10]: > 5000 nM; Ki (MOR (mu opioid receptor) [4]): 992 ± 55 nM; K i DOR/K i MOR (MOR (mu opioid receptor) [4]): 1.21

Which results are given for C[C@H]1[C@H]2Cc3ccc(O)cc3[C@]1(C)CCN2CCC(=O)NO [Compound 7, N‐Hydroxy‐3‐((2R,6R,11R)‐8‐hydroxy‐6,11‐dimethyl‐1,4,5,6‐tetrahydro‐2,6‐methanobenzo[d]azocin‐3(2H)‐yl)propanamide]?
Ki [5]: 335 ± 19 nM; Ki [6, 10]: > 5000 nM; Ki (MOR (mu opioid receptor) [4]): 30.8 ± 2 nM; K i DOR/K i MOR (MOR (mu opioid receptor) [4]): 10.89

Which Ki [5] does the source give for C[C@H]1[C@H]2Cc3ccc(O)cc3[C@]1(C)CCN2CCCC(=O)NO [Compound 8, N‐Hydroxy‐4‐((2R,6R,11R)‐8‐hydroxy‐6,11‐dimethyl‐1,4,5,6‐tetrahydro‐2,6‐methanobenzo[d]azocin‐3(2H)‐yl)butanamide] here?
The Ki was 1300 ± 80 nM.

And the Ki [6, 10]?
Its Ki is over 5000 nM.

What about the Ki (MOR (mu opioid receptor) [4]) of the same molecule?
The Ki was 42.2 ± 3 nM.

And the “K i DOR/K i MOR” value (MOR (mu opioid receptor) [4])?
Its value is 30.83.

Which results are given for CC1C2Cc3ccc(O)cc3C1(C)CCN2CCC(=O)Nc1ccccc1 (stereo not drawn) [LP1]?
Ki (KOR): 110 nM; Ki (DOR): 29.1 nM; Ki (MOR): 0.83 nM

With COC(CN1CCC2(C)c3cc(O)ccc3CC1C2C)c1ccccc1 (stereo not drawn) [LP2] as the molecule, how does the Ki ([1]; read-out: K i (nM) ± SD KOR, footnote c, ref Costanzo et al. ([2023])) read?
Its Ki is 15.2 ± 0.8 nM.

What about the Ki [1, 7] of the same molecule?
Its Ki is 15.2 ± 0.8 nM.

What about the Ki (MOR (mu opioid receptor) [2]; read-out: K i (nM) ± SD MOR, footnote c, ref Costanzo et al. ([2023])) of the same molecule?
Its Ki is 1.08 ± 0.1 nM.

What about the Ki (MOR (mu opioid receptor) [2]; [8]) of the same molecule?
The Ki was 1.08 ± 0.1 nM.

And the Ki [3, 9]?
The Ki was 6.61 ± 0.6 nM.

And the Ki ([3]; read-out: K i (nM) ± SD DOR, footnote c, ref Costanzo et al. ([2023]))?
The Ki was 6.61 ± 0.6 nM.

What about the “K i DOR/K i MOR” value (MOR (mu opioid receptor) [4]) of the same molecule?
Its value is 6.11.

And the “K i KOR/K i MOR” value (MOR (mu opioid receptor) [4])?
Its value is 14.10.
